Values of other authors in paper PMC3303928 (Bioorganic & medicinal chemistry, 2012).

Conditions: animal tests, racemic mixtures (and their corresponding 3R,4R stereoisomers)

| Structure (SMILES) | blood-brain barrier (BBB) penetration |
| --- | --- |
| Cc1cc(N)nc(C[C@H]2CNC[C@H]2NCCNCCc2cccc(F)c2)c1 [Compound 1] | minimal |
| Cc1cc(N)nc(C[C@H]2CNC[C@H]2OCCNCCc2cccc(F)c2)c1 [Compound 3] | minimal |
